Test results as given in patent US20080125396A1, “Derivatives of Isothiazol-3(2H)-Thione 1,1-Dioxides as Liver X Receptor Modulators” (AtraZeneca AB, priority 2005, published 2008).

Molecular target: T1, LXRα (Homo sapiens, UniProt Q13133)
T1 construct: human LXRalpha (amino acid 205-447); expressed in transfected cells; host or cells: U2/OS osteosarcoma cells electroporated with pSGGAL-LXRalpha (pSG5 vector)
T1 sequence (Q13133 205-447): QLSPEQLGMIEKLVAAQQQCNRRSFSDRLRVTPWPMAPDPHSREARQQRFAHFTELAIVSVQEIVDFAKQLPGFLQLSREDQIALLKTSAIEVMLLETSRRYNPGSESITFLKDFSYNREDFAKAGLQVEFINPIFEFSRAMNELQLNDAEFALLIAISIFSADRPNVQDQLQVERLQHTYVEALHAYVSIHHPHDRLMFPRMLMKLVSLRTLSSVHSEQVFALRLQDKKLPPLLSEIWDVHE
Assay: Transactivation (reporter gene) assay in U2/OS cells
Assay type: cell-based
Conditions: GAL4-LXRalpha LBD luciferase reporter, U2/OS osteosarcoma cells, 48 h
Procedure: Expression vectors were prepared by inserting the ligand binding domain cDNA (complementary DNA) of human LXRalpha (amino acid 205-447) and LXRbeta (amino acid 216-461) in frame with, 3′ to the yeast GAL4 transcription factor DNA binding domain and the nuclear localization signal from the T-antigen of Polyoma Virus in the eucaryotic expression vector pSG5 (Stratagene). The resulting expression vectors pSGGAL-LXRalpha and pSGGAL-LXRbeta were used in cotransfection experiments together with the pGL3 luciferase reporter plasmid containing a minimal SV40 promoter (Promega) and five copies of the UAS GAL4 recognition site. 2.5 μg pSGGAL-LXRalpha or beta were mixed with […] pGL3 5xUAS and 22.5 μg pBluscript (Stratagene) in 0.95 mL ice cold PBS containing approx. 4-9 milj. U2/OS osteosarcoma cells. After a five minute incubation on ice the cell/DNA mixture was electroporated in 0.4 cm cuvettes at 960 μF, 230 V using a BioRad electroporator and diluted to 0.32 milj cells/mL in complete DMEM [Dulbecco's Modified Eagle Medium w/o phenol red, (Gibco 11880-028) including 10% FBS (Foetal Bovine Serum), 1% PEST (Penicillin Streptomycin), 20 mM Hepes, 2 mM L-Glutamine and 0.36% Glucose Gibco 31966-021] medium. […] Luciferase activity was measured as Luminescence in the Wallac Victor reader after 15 min. incubation at room temperature. […]

EC50: 960 nM
Compound: CCCCN1C(=S)C(Nc2ccc(OC(F)F)cc2)=C(c2ccccc2)S1(=O)=O [Example 1, 2-Butyl-4-{[4-(difluoromethoxy)phenyl]amino}-5-phenylisothiazole-3(2H)-thione 1,1-dioxide]
